Entries after “also recorded” stand apart in the source; their conditions may differ.
Columns and labels:
Format in all cases: cell-based
RS4;11 cells = assay: Thiazolyl blue cell proliferation assay in RS4;11 cells; settings: Homo sapiens, RS4;11 acute lymphoblastic leukemia cells, 48 hours, read-out: IC50 (nM) for inhibiting the proliferation of RS4;11 cells
How it was run: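 RS4;11 cells, 3×10^4 cells/well in serum-containing RPMI-1640, treated 48 h with 7 concentrations (top 1000 nM or 100 nM, 10-fold serial dilutions). MTT added for 3 h at 37 °C, solubilised 4-6 h with SDS/isopropanol/HCl, absorbance read at 490 nm. IC50 from growth-inhibition curves; triplicates, at least three repeats.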

MV4;11 cells = assay: Thiazolyl blue cell proliferation assay in MV4;11 cells; settings: Homo sapiens, MV4;11 myeloid monocytic leukemia cells, 48 hours, read-out: IC50 (nM) for inhibiting the proliferation of MV4;11 cells
How it was run: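 MV4;11 cells were seeded at 2×10^4 cells/well in serum-containing IMDM and treated with compound dilution series for 48 h. Viability was read by MTT at 490 nm after SDS/isopropanol/HCl solubilisation. IC50 values came from growth-inhibition curves, with 3 replicates and at least three repeats.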

Molt-4 cells = assay: Thiazolyl blue cell proliferation assay in Molt-4 cells; settings: Homo sapiens, Molt-4 acute lymphocytic leukemia cells, 72 hours, read-out: IC50 (nM) for inhibiting the proliferation of Molt-4 cells
How it was run: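 BCL-XL-dependent Molt-4 cells at 2×10^4/well in serum-containing RPMI 1640 were exposed to compound concentration gradients for 72 h. Thiazolyl blue (MTT) was added for 3 h at 37° C, solubilised in SDS/isopropanol/HCl, and read at 490 nm. IC50 comes from growth-inhibition curves, triplicate, repeated ≥3 times.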

[1] = system: Hedgehog (Hh) signaling pathway; assay: Dual-luciferase reporter assay of Hedgehog activity in Light II cells; settings: SAG stimulation, 36 h, dual-luciferase assay reporter kit, read-out: IC50 (nM) in Light II cells (inhibiting Hedgehog activity)
Procedure: Determination of the IC50 Values of Compounds Inhibiting Hedgehog Activity—Dual-Luciferase Reporter Assay:
Light II cells were NIH3T3 cell lines that stably express the Gli-luciferase and TK-renilla reporters. They were cultured with DMEM medium containing 10% (v/v) fetal bovine serum (FBS), 0.4 mg/ml G418, 0.15 mg/ml bleomycin (Zeocin), and penicillin/streptomycin at 37° C. in an incubator with 5% CO2. Light II cells in the logarithmic growth phase were seeded at a density of 2.5×10^4 cells/well in a 96-well plate. After 24h incubation, the cells were subjected to treatment with SAG with or without different concentrations of the compounds of the present disclosure for 36 h. After that, the Hedgehog activity was measured using the dual fluorescence reporter kit according to its instructions. The experiment had 3 replicates per group and was repeated at least three times.

BCL-XL protein = biological target: T1, BCL-XL protein (Homo sapiens, UniProt Q07817); assay: Western blot of BCL-XL protein in Molt-4 cells; settings: 100 nM, 8 h
T1 construct: endogenous in cells; host or cells: Molt-4 (human acute lymphocytic leukemia cells)
Procedure: The BCL-XL antibody used in the experiment was purchased from Abcam Company, and the Tubulin antibody was purchased from Proteintech Company.
Molt-4 cells in logarithmic growth phase seeded at a density of 3×10^6 cells/well in a 6-well plate were subjected to treatment with the compounds of the present disclosure, and DMSO was used as the vehicle control group. After […] of treatment, the cells were harvested and washed once in PBS. Cells were placed on ice and treated with IP protein lysis buffer containing PMSF protease inhibitors. After centrifugation at 4° C. (10 k rpm, 5 min), the supernatant was collected and mixed with 4×LDS protein loading buffer at a volume ratio of 3:1. The mixture of protein supernatant with loading buffer were further added with 5% β-mercaptoethanol. After incubation in a metal bath at 95° C. for 10 minutes, the protein samples was stored at −80° C. or cooled directly on ice for protein electrophoresis using 10% homemade polyacrylamide gel as separation gel. Electrophoresis tank and other related components were purchased from Bio-rad company. The electrophoresis conditions were voltage 80 V for 45 minutes, then switch to voltage 120V for further electrophoresis for 1 hour. Then protein in gel was transferred onto PVDF membrane at an isocurrent of 300 mA in an icy water bath for one hour. Afterwards, the membrane was blocked with 5% skim milk for 1 hour at room temperature. Subsequently the membrane was incubated with primary antibody at 4° C. overnight or at room temperature for 2 h, then washed with 1×TBST buffer (sodium chloride, 150 mM, Tris, 10 mM, Tween 20, 0.1%; PH 7.4) for three times, and then added with secondary antibody and incubated at room temperature for 45 min, washed with 1×TBST buffer (sodium chloride, 150 mM, Tris, 10 mM, Tween 20, 0.1%; PH 7.4) three times, and subjected to color development. The antibody dilution ratio was determined according to the antibody instructions.
Molt-4 cells were seeded into a 6-well plate at a density of 3×10^6 cells per well. The next day, the cells were treated with the compounds of the present disclosure at a concentration of 100 nM, and the control groups were treated with DMSO and DT2216, respectively. Protein were extracted after 8 hours treatment, and BCL-XL protein expression was assessed by the western blot.

T1 sequence (Q07817 whole entry): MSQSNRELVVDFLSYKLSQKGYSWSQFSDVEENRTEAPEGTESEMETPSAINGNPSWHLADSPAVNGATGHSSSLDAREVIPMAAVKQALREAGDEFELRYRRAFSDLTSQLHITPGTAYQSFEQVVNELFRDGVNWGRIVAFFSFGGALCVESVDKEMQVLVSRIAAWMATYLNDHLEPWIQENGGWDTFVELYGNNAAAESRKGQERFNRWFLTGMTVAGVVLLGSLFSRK

Row | IC50 (RS4;11 cells) [nM] | IC50 (MV4;11 cells) [nM] | IC50 (Molt-4 cells) [nM] | IC50 [1] [nM] | SMILES | BCL-XL protein expression / degradation (western blot) (BCL-XL protein)
1 | < 20 | < 20 | < 10 | < 10 | CC1(C)CCC(CN2CCN(c3ccc(C(=O)NS(=O)(=O)c4ccc(NC[C@H]5CC[C@H](N6CCN(Cc7ccc8c(c7)CN(C7CCC(=O)NC7=O)C8=O)CC6)CC5)c([N+](=O)[O-])c4)c(Oc4cnc5[nH]ccc5c4)c3)CC2)=C(c2ccc(Cl)cc2)C1 (relative stereo) [BCL-03147, 2-((1H-pyrrolo[2,3-b]pyridin-5-yl)oxy)-4-(4-((4′-chloro-5,5-dimethyl-3,4,5,6-tetrahydro-[1,1′-biphenyl]-2-yl)methyl)piperazin-1-yl)-N-((4-((((trans)-4-(4-((2-(2,6-dioxopiperidin-3-yl)-1-oxoisoindolin-5-yl)methyl)piperazin-1-yl)cyclohexyl)methyl)amino)-3-nitrophenyl)sulfonyl)benzamide] | significantly reduce the expression of BCL-XL protein; also recorded: significantly degraded BCL-XL protein
2 | < 20 | < 20 | < 10 | < 10 | CC1(C)CCC(CN2CCN(c3ccc(C(=O)NS(=O)(=O)c4ccc(NC[C@H]5CC[C@@H](N6CCN(Cc7ccc8c(c7)CN(C7CCC(=O)NC7=O)C8=O)CC6)CC5)c([N+](=O)[O-])c4)c(Oc4cnc5[nH]ccc5c4)c3)CC2)=C(c2ccc(Cl)cc2)C1 (relative stereo) [BCL-03148, 2-((1H-pyrrolo[2,3-b]pyridin-5-yl)oxy)-4-(4-((4′-chloro-5,5-dimethyl-3,4,5,6-tetrahydro-[1,1′-biphenyl]-2-yl)methyl)piperazin-1-yl)-N-((4-((((cis)-4-(4-((2-(2,6-dioxopiperidin-3-yl)-1-oxoisoindolin-5-yl)methyl)piperazin-1-yl)cyclohexyl)methyl)amino)-3-nitrophenyl)sulfonyl)benzamide] | significantly reduce the expression of BCL-XL protein; also recorded: significantly degraded BCL-XL protein
3 | < 20 | < 20 | < 10 | < 10 | CC1(C)CCC(CN2CCN(c3ccc(C(=O)NS(=O)(=O)c4ccc(NC[C@H]5CC[C@@H](N6CCN(Cc7cc(Br)c8c(c7)C(=O)N(C7CCC(=O)NC7=O)C8)CC6)CC5)c([N+](=O)[O-])c4)c(Oc4cnc5[nH]ccc5c4)c3)CC2)=C(c2ccc(Cl)cc2)C1 (relative stereo) [BCL-03149, 2-((1H-pyrrolo[2,3-b]pyridin-5-yl)oxy)-N-((4-((((cis)-4-(4-((7-bromo-2-(2,6-dioxopiperidin-3-yl)-3-oxoisoindolin-5-yl)methyl)piperazin-1-yl)cyclohexyl)methyl)amino)-3-nitrophenyl)sulfonyl)-4-(4-((4′-chloro-5,5-dimethyl-3,4,5,6-tetrahydro-[1,1′-biphenyl]-2-yl)methyl)piperazin-1-yl)benzamide] | significantly reduce the expression of BCL-XL protein; also recorded: significantly degraded BCL-XL protein

Source: patent publication US20250154146A1, “PROTEIN DEGRADERS DEVELOPED ON BASIS OF BCL-2 FAMILY PROTEIN LIGAND COMPOUNDS AND USE THEREOF” (ShanghaiTech University, priority 2022, published 2025)
